# Key:
# Conditions in all cases: 72 h
# U2OS [1] = test: drug sensitivity score (DSS) for viability; higher = more toxic; extreme values may be limits of the assay
# Calu-3 [2] = test: as above
# HepG2 [3] = test: as above
# Vero E6 [4] = test: as above
# Caco-2 [5] = test: as above
# U2OS [6] = test: relative viability EC50 (midpoint between 100% and the lowest measured viability); higher = less toxic
# Calu-3 [7] = test: as above
# HepG2 [8] = test: as above
# Vero E6 [9] = test: as above
# Caco-2 [10] = test: as above
# U2OS [11] = test: cell viability relative to DMSO; higher = less toxic
# Calu-3 [12] = test: as above
# HepG2 [13] = test: as above
# Vero E6 [14] = test: as above
# Caco-2 [15] = test: as above
SMILES,drug sensitivity score (U2OS [1]),drug sensitivity score (Calu-3 [2]),drug sensitivity score (HepG2 [3]),drug sensitivity score (Vero E6 [4]),drug sensitivity score (Caco-2 [5]),relative viability EC50 (U2OS [6]) [µM],relative viability EC50 (Calu-3 [7]) [µM],relative viability EC50 (HepG2 [8]) [µM],relative viability EC50 (Vero E6 [9]) [µM],relative viability EC50 (Caco-2 [10]) [µM],cell viability (U2OS [11]; 1 nM) [%],cell viability (U2OS [11]; 10 nM) [%],cell viability (U2OS [11]; 100 nM) [%],cell viability (U2OS [11]; 1000 nM) [%],cell viability (U2OS [11]; 10000 nM) [%],cell viability (Calu-3 [12]; 1 nM) [%],cell viability (Calu-3 [12]; 10 nM) [%],cell viability (Calu-3 [12]; 100 nM) [%],cell viability (Calu-3 [12]; 1000 nM) [%],cell viability (Calu-3 [12]; 10000 nM) [%],cell viability (HepG2 [13]; 1 nM) [%],cell viability (HepG2 [13]; 10 nM) [%],cell viability (HepG2 [13]; 100 nM) [%],cell viability (HepG2 [13]; 1000 nM) [%],cell viability (HepG2 [13]; 10000 nM) [%],cell viability (Vero E6 [14]; 1 nM) [%],cell viability (Vero E6 [14]; 10 nM) [%],cell viability (Vero E6 [14]; 100 nM) [%],cell viability (Vero E6 [14]; 1000 nM) [%],cell viability (Vero E6 [14]; 10000 nM) [%],cell viability (Caco-2 [15]; 1 nM) [%],cell viability (Caco-2 [15]; 10 nM) [%],cell viability (Caco-2 [15]; 100 nM) [%],cell viability (Caco-2 [15]; 1000 nM) [%],cell viability (Caco-2 [15]; 10000 nM) [%]
CCCC(=O)C1(c2ccccc2)CCN(C(=O)[C@@H](Cc2ccc(OC)cc2)NC(=O)[C@@H](N)Cc2cncn2C)CC1,0,0,0,0,0,> 10,> 10,> 10,> 10,> 10,98.8,97.9,104,102,97.7,98.3,100,96.6,101,106,95.4,105,97.8,118,95.3,102,101,98.7,102,97.1,108,94.9,97.3,102,99.7
Cc1cnc(-c2cnc(NCCNc3ccc(C#N)cn3)nc2-c2ccc(Cl)cc2Cl)[nH]1,,0,0,1.2,0,,> 10,> 10,> 10,> 10,,,,,,87.6,107,99.1,110,89.7,104,99.3,107,113,98.4,101,100,94.9,97.6,76.8,99.5,105,95.7,110,99.6
Fc1ccc(-c2nc3n(c2-c2ccncc2)CCS3)cc1,0,0,0,0,0.2,> 10,> 10,> 10,> 10,> 10,99,97.8,98.7,96.1,97.6,95.2,86.2,90.9,87.7,101,97.3,93.2,97.8,99.9,100,97.8,99.7,98.2,99.1,93,99.6,101,90.9,89.4,92
NNC(=O)CSc1nc2scc(-c3ccccc3)c2c(=O)n1-c1ccccc1,0,0,,0,0,> 10,> 10,,> 10,> 10,97.7,95.8,98.3,103,102,91.9,93.2,95.3,103,101,,,,,,94.1,97.1,94.8,90.5,109,100,97.7,93.1,93.6,108
O=c1[nH]ccc2cc(OC3CCNCC3)ccc12,0,0,0,0,0,> 10,> 10,> 10,> 10,> 10,97.6,98.2,101,96.3,94.9,93.8,106,111,127,130,98.1,99.7,108,112,106,97.1,101,89.6,100,92,89.7,96.4,99.7,100,106
CN1CCN(C2=Cc3ccccc3Oc3ccc(Cl)cc32)CC1 [2-CMDO],0,0,,0,0,> 10,> 10,,> 10,> 10,101,98.6,96.7,100,90.1,103,102,98.2,112,95.6,,,,,,102,99.5,103,103,93.3,107,90.6,99.7,103,92.3
Nc1ccc(C(=O)NCC(=O)O)cc1 [4-aminohippuric-acid],,0,0,0,0.1,,> 10,> 10,> 10,> 10,,,,,,106,91.1,109,106,101,100,107,99,104,89.8,97.5,99.1,101,100,96.2,97.1,99.7,100,89.5,93
COc1cc2c(cc1OCCCN1CCCC1)N=C(N)C21CCC1 [A-366],0,0,,0,0,> 10,> 10,,> 10,> 10,103,102,98.9,105,95.2,97.3,106,102,103,95.4,,,,,,101,98.1,93.6,94.4,97.8,91.2,95.4,97.5,104,92
CC(C)(C)c1ccc(/C=C/C(=O)Nc2ccc3c(c2)OCCO3)cc1 [AMG-9810],0,1.4,3.4,0,2.9,> 10,> 10,3.43,> 10,,96.4,97.4,98.2,96.7,89.7,103,98.3,101,94.5,78.8,98.3,101,97.9,103,33.1,98.3,102,96,97,89.4,94.9,92.8,99.3,90.4,67.8
C[C@H](NC(=O)Cc1cc(F)cc(F)c1)C(=O)N[C@H](C(=O)OC(C)(C)C)c1ccccc1 [DAPT],0,0,,0,0,> 10,> 10,,> 10,> 10,106,106,105,97.7,101,105,100,112,91.1,103,,,,,,98.3,108,103,105,102,108,109,116,99.8,96.1
CCCCCCN(CCCCCC)C(=O)Cc1c(-c2ccc(F)cc2)[nH]c2ccccc12 [FGIN-1-27],0,0,0,0,2.2,> 10,> 10,> 10,> 10,,98.5,102,103,100,92.3,96,99.2,99.8,102,89,104,95.2,94.3,106,96.6,98.6,94.5,94,95.2,92.8,99.5,99.6,89.2,94.3,68.6
O=C(NCCS(=O)(=O)c1ccc(C(F)(F)F)cn1)c1ccc(Cl)cc1 [GSK3787],,0,0,0,0,,> 10,> 10,> 10,> 10,,,,,,104,94.8,103,100,97.7,97.7,102,117,99.6,102,97.8,97.3,91.2,89.9,101,99.8,95.5,102,99.7,99.8
CCc1cnc(N2CCC(c3nc(COc4ccc(-n5cnnn5)cc4)cs3)CC2)nc1 [MBX-2982],0,0,3.5,0.9,2.1,> 10,> 10,3.13,> 10,,103,94.8,96.7,96.2,93.7,97.5,92,109,102,103,97.4,94.6,93.2,99.7,36,102,106,105,97.2,80.4,95.8,107,86.9,96.1,67.5
Clc1ccc2c(NCCNc3ccnc4cc(Cl)ccc34)ccnc2c1 [NSC-5844],0,0,,0,0.4,> 10,> 10,,> 10,> 10,97.3,96.6,100,94.9,96.7,97.8,98.3,103,96.9,96.1,,,,,,88,95.2,96.2,94.5,101,98.6,102,106,117,76.9
Cc1ccc(-c2ncn(-c3ccc(Nc4nccc(-c5cccc(N6CCOCC6)c5)n4)cc3)n2)cn1 [SR-3306],0.6,0,3.3,0,2.6,> 10,> 10,3.04,> 10,,102,104,97.9,103,78,99.9,98.3,87.8,94.7,98.6,99.8,90.8,100,98.9,40.9,109,109,106,99.1,92.9,99.3,98.7,95.9,92.2,67.5

# From the supplement of paper PMC13380429
